Data reported in patent US20080182894A1, “METHOD OF PROVIDING PREPARATION FOR TOPICAL APPLICATION AND SUPPLEMENT MEETING CLIENT'S NEEDS” (AJINOMOTO CO., INC., priority 2005, published 2008).
“Also recorded” adds a separate entry of the source.

Tests used:
hairless mouse [1] = experiment: Inhibition of UVB-induced pigmentation: oral tocopherol acetate plus transdermal dihydrocapsiate; assay type: in vivo
Procedure: The synergistic effect of tocopherol acetate and dihydrocapsiate was confirmed using a pigmentation induction mouse based on the inhibition of pigmentation induced by ultraviolet beam (UVB).
(1) Before the start of ultraviolet beam (UVB) irradiation, tocopherol acetate (200 μl) as administered orally once a day for 3 days to a hairless mouse (12-week-old, female) using a gavage needle.
(2) After the 3-day oral administration in (1), the hairless mouse was irradiated with UVB (80-90 mJ/cm^2).
(3) Thirty minutes after the irradiation in (2), tocopherol acetate (200 μl) was administered orally to the hairless mouse using a gavage needle. Five minutes after the oral administration, 28 μl of 5 wt % dihydrocapsiate dissolved in 50 wt % ethyl alcohol was applied to the hairless mouse on the left side of the back.
Treatments (2) and (3) were performed 3 times a week (Monday, Wednesday and Friday) and treatment (3) alone was performed twice a week (Tuesday and Thursday). The skin on the back of the mouse after about 3 weeks from the start of the UV irradiation was visually evaluated.

hairless mouse [2] = experiment: Inhibition of UVB-induced pigmentation: oral cystine plus transdermal dihydrocapsiate; assay type: in vivo; conditions: 5% dihydrocapsiate (50% aqueous ethanol) applied plus oral cystine 50 mg in 150 μl 0.5% CMC; about 3 and about 4 weeks; vs 50% aqueous ethanol application group
Procedure: An experiment similar to that in Example 2 was performed using cystine as an oral agent. In particular, 50 mg of cystine was dissolved in 150 μl of a 0.5% aqueous CMC (carboxymethylcellulose) solution and used as an oral administration sample, and 5% dihydrocapsiate (50% aqueous ethanol solution) was used as a dermal application sample. Ultraviolet beam (UVB) was utilized as an irradiation source without preliminary administration, and the synergistic effect afforded by the oral administration agent and the blood circulation promoter on the blackness suppressive effect on the pigmentation of the back of a mouse was confirmed according to the experiment schedule similar to that in Example 2.
Suppression of pigmentation induction in the dihydrocapsiate application group was visually evaluated.
Visual evaluation criteria • 0: No pigmentation • 1: Spots of pale pigmentation found in a part • 2: Spots of pale pigmentation found on the entire back • 3: Spots of pigmentation found on the entire back (partly deep pigmentation was found) • 4: Spots of deep pigmentation found on the entire back • 5: Deep pigmentation found on the entire back

[3] = system: hairless mouse (HR-1, female); experiment: Increase in topical concentration of systemically administered trypan blue dye by topical capsiate; assay type: in vivo
Procedure: A hairless mouse (HR-1, female) was intraperitoneally injected with a trypan blue solution (0.4%, 300 μl). After injection, 100 μl of 5% capsiate (dissolved in an ethanol solution) was applied uniformly using a pipet chip to the right side of the back. As a control, 100 μl of ethanol alone was uniformly applied to the left side of the back by a similar method.

[4] = system: hairless mouse (HR-1, female); experiment: Vasodilating (blood circulation improving) effect, red spot on auricles, visual evaluation; assay type: in vivo; conditions: for blood circulation promoting action, intensity and sustainability (conclusion): auricle red spot test, 1 wt % and 5 wt %
Description: The vasodilating effects (blood circulation improving effect) of capsiate and capsaicin were compared using auricles of a hairless mouse. A sample was applied to the right ear of a hairless mouse (HR-1, female) and a control was applied to the left ear thereof, and the development of a red spot was visually evaluated. (1) Capsiate (1 wt % or 5 wt % dissolved in liquid paraffin) (2) Capsaicin (1 wt % or 5 wt % dispersed in liquid paraffin Liquid paraffin

[5] = Dissolution of sample in liquid paraffin; assay type: physicochemical; conditions: 1 wt % and 5 wt %; evaluated in a dispersion state
[6] = 1 wt % in liquid paraffin, right ear, control liquid paraffin on left ear
[7] = 5 wt % in liquid paraffin, from 30 min onward after application

SMILES: COc1cc(COC(=O)CCCCCCC(C)C)ccc1O [dihydrocapsiate]
- UVB-induced pigmentation of back skin, visual evaluation, combined use (hairless mouse [1]; 28 μl of 5 wt % dihydrocapsiate on left side of back plus oral tocopherol acetate 200 μl, UVB 80-90 mJ/cm^2, about 3 weeks, vs non-application right side): less pigmentation; also recorded: can suppress induction of pigmentation by UVB
- UVB-induced pigmentation of back skin, visual evaluation, dihydrocapsiate alone (hairless mouse [1]; dihydrocapsiate applied alone, no oral tocopherol acetate, UVB irradiation): UVB irradiation induced pigmentation in the application site; also recorded: failed to suppress induction of pigmentation
- pigmentation suppressive effect after treatment is ceased (hairless mouse [1]; tocopherol acetate administration and dihydrocapsiate application ceased, UVB irradiation continued, dihydrocapsiate application site): disappears and induction of pigmentation begins
- UVB-induced pigmentation induction, visual evaluation (score 0-5, FIG. 9) (hairless mouse [2]): clearly suppressed

SMILES: COc1cc(COC(=O)CCCC/C=C/C(C)C)ccc1O [capsiate]
- pigmentation of blue dye in the vicinity of the auricle ([3]; 5% capsiate in ethanol applied to auricle, trypan blue i.p., 30-60 minutes after application): pigmentation of a blue dye was observed
- skin pigmentation (infiltration) of blue dye at application site ([3]; 100 μl of 5% capsiate in ethanol on back, trypan blue i.p., 30 minutes after application): clear skin pigmentation (infiltration) of the blue dye was observed
- skin pigmentation of blue dye derived from trypan blue at application site ([3]; 100 μl of 5% capsiate in ethanol on right side of back vs ethanol alone on left, trypan blue 0.4% 300 μl i.p., 15-20 minutes after application): confirmed only on the capsiate application side
- development of a red spot on auricle, visual evaluation [4, 6]: no development of a red spot
- development of a red spot on auricle, visual evaluation [4, 7]: clear red spot
- blood circulation promoting action, intensity and sustainability (conclusion) [4]: mild sustainability and intensity
- time until developed red spot completely disappeared ([4]; capsiate in liquid paraffin, auricle): about 2 hr

SMILES: COc1cc(CNC(=O)CCCC/C=C/C(C)C)ccc1O [capsaicin, reference compound]
- development of a red spot on auricle, visual evaluation [4, 6]: presence of a red spot
- development of a red spot on auricle, visual evaluation [4, 7]: clear red spot
- blood circulation promoting action, intensity and sustainability (conclusion) [4]: strong blood circulation promoting action and long sustainability
- time over which red spot maintained the initial state ([4]; capsaicin, even at 1 wt %, auricle): > 2 h
- dissolution in liquid paraffin [5]: did not dissolve completely

SMILES: CC(=O)Oc1c(C)c(C)c2c(c1C)CCC(C)(CCC[C@H](C)CCC[C@H](C)CCCC(C)C)O2 (some centres unmarked) [tocopherol acetate, reference compound]
- UVB-induced pigmentation of back skin, visual evaluation, tocopherol only control (hairless mouse [1]; oral tocopherol acetate 200 μl, solvent (50 wt % ethyl alcohol) applied instead of dihydrocapsiate, right vs left side of back): a clear difference was not observed; also recorded: failed to suppress induction of pigmentation
